What was measured:
rat ileum = experiment: Absorption in rat intestinal loop, in situ closed loop method; format: in vivo; conditions: 20 minutes, CDX 1 mM or CFIX 0.5 mM in MES buffer pH 6.0
Procedure: For example, rats are anesthetized by intraperitoneally administering pentobarbital sodium (50 mg/kg). Then, laparotomy is performed along the median line to expose the intestinal tract, and a loop is formed at the ileum (e.g., FIG. 6). MES buffer containing medical fluid and a polymer (5 mM KCl, 100 mM NaCl, 10 mM 2-(N-morpholino)ethanesulfonic acid (MES), 85 mM mannitol, 0.01% polyethylene glycol; pH 6.0; osmotic pressure 290 mOs/kg) is introduced into the intestinal loop and both ends of the loop are ligated. Subsequently, the intestinal loop is immediately returned to the abdominal cavity. An incandescent lamp is used to maintain the body temperature. The solution inside the intestinal loop is retrieved 20 minutes after its administration. The pH was measured by pH-meter. The amount of medicaments are measured by HPLC.
The oral composition of the invention was prepared by adding a β-lactam antibiotic (CDX or CFIX) to 10 mM MES buffer (pH 6.0) such that the buffer contained CDX in an amount of 1 mM or CFIX in an amount of 0.5 mM, and further adding Eudragit L100-55 to the buffer so that it contained in a proportion of 10 or 20 wt. % based on the amount of the entire oral composition. A β-lactam antibiotic solution containing no Eudragit L100-55 was prepared as a control.
These compositions were administered into the intestinal loops prepared at the caecum junction of SD male rats (junction between the terminal of the ileum and where the caecum starts) to a distance of 14 cm toward the stomach. The solution remaining in the intestinal loops was retrieved 20 minutes after administration. The concentration of β-lactam antibiotic in the retrieved solution was measured by HPLC, and pH of the retrieved solution was measured using a pH meter. Absorbability was evaluated according to the decrease in the concentration of β-lactam antibiotic in the retrieved solution in comparison with the concentration thereof in the solution administered.

Caco-2 cells = experiment: Cellular uptake into Caco-2 cells under various pH conditions (pH profile); format: in vitro ADME, human; conditions: 2 mM, uptake over 15 minutes
Procedure: To investigate the effect of extracellular fluid on the cellular uptake of dipeptides and β-lactam antibiotics transported by PEPT1, the cellular uptake of dipeptides, i.e., [^14C]glycylsarcosine ([^14C]GlySar) and [^3H]carnosine, and β-lactam antibiotics, i.e., cefadroxil (CDX), cefixime (CFIX), and FK089, was evaluated at pH 5.0 to 7.0 using gastrointestinal tract model cells (Caco-2 cells).
Cells cultured on 4-well plates were rinsed 3 times with 1 mL Hanks' balanced salt solution (HBSS: 0.952 mM CaCl2, 5.36 mM KCl, 0.441 mM KH2PO4, 0.812 mM MgSO4, 136.7 mM NaCl, 0.385 mM Na2HPO4, 25 mM D-glucose, 10 mM HEPES; pH 7.4; osmotic pressure 315 mOs/kg) heated to 37° C., and uptake was initiated by adding 250 μL HBSS containing medical fluid. Uptake was terminated at a predetermined period of time by washing the cells 3 times with 1 mL ice-cooled HBSS. […] The medicaments contained in the solution extracted from the cells were quantified by a liquid scintillation counter or liquid chromatography (HPLC). Proteins contained in the cells were quantified using a protein assay kit (Bio-Rad, Richmond, Calif., USA) according to the Bradford assay (Bradford, M. M. “A Rapid and Sensitive Method for the Quantitation of Microgram Quantities of Protein Utilizing the Principle of Protein-Dye Binding”. Anal. Biochem. 72 (1976): 248-254). […]

[1] = Plasma concentration of CFIX after oral administration to rats with polymer and/or CDX; format: in vivo; conditions: male, SD, rat, CFIX 2.3 mg/kg, polymer 500 mg/kg
Procedure: To investigate whether absorption of orally-administered peptidergic compounds in rats is improved by controlling gastrointestinal pH using pH-sensitive polymers, the time course of the plasma concentration of CFIX was examined after orally administering the peptidergic compound CFIX in combination with a pH-sensitive polymer (Eudragit L100-55) or pH-insensitive polymer (Eudragit RS PO).
The oral composition of the invention was prepared by adding Eudragit L100-55 to an aqueous solution of CFIX (0.23 mg/mL) such that the solution contained Eudragit L100-55 in a proportion of 5 wt. % based on the amount of the entire oral composition. A CFIX solution containing no Eudragit L100-55 was prepared as a control. These compositions were orally administered to SD male rats (body weight: 190 to 220 g) fasted for an entire day and night such that CFIX was given in a dose of 2.3 mg/kg. Blood was collected 15 to 480 minutes after administration, and the plasma concentration of CFIX was measured by HPLC. Based on the plasma concentration profile of CFIX thus obtained, the area under the plasma drug concentration-time curve (AUC) and highest drug concentration observed in plasma following administration of an extravascular dose (Cmax) were obtained.
Plots (◯) represent absorption of CFIX in the absence of a polymer, plots (●) represent absorption of CFIX in the presence of Eudragit L100-55 (500 mg/kg), and plots (□) represent absorption of CFIX in the presence of Eudragit RS PO (500 mg/kg). Each plot represents the mean±standard error of 5 experiments.
The experimental procedure was as described in Example 4 except that CDX was simultaneously administered.
FIG. 5 depicts the influence of CDX on the oral administration profile of CFIX after administering the composition (CFIX: 2.3 mg/kg) to rats. Plots (●) represent absorption of CFIX when Eudragit L100-55 (500 mg/kg) and 0 mM CDX were used, plots (▴) represent absorption of CFIX when Eudragit L100-55 (500 mg/kg) and 2 mM CDX were used, and plots (▪) represent absorption of CFIX when Eudragit L100-55 (500 mg/kg) and 10 mM CDX were used. […]

Compound | absorption from rat intestinal loop (rat ileum; no Eudragit L100-55) | absorption from rat intestinal loop (rat ileum; with Eudragit L100-55 20 wt. %) | pH of optimum uptake into Caco-2 cells (Caco-2 cells; pH 5.0 to 7.0) | cellular uptake when pH of extracellular fluid is decreased from 6.0 to 5.0 (Caco-2 cells; Caco-2 cells) | Cmax [1] | Tmax [1] | AUC(0-t) ([1]; read-out: AUC0-8h of CFIX)
CC1=C(C(=O)O)N2C(=O)[C@@H](NC(=O)[C@H](N)c3ccc(O)cc3)[C@H]2SC1 [CDX, cefadroxil] | about 40% | about 80% | 6.0 |  |  |  | 
C=CC1=C(C(=O)O)N2C(=O)[C@@H](NC(=O)/C(=N\OCC(=O)O)c3csc(N)n3)[C@H]2SC1 [CFIX, cefixime] | hardly absorbed | about 35% |  | greatly enhanced | 4130 ± 500 ng/mL | 43.2 ± 12 min | 10800 ± 1480 ng·h/mL

From US8871818B2, “Gastrointestinal absorption enhancer mediated by proton-coupled transporter and its preparing method” (Otsuka Pharmaceutical Co., Ltd., priority 2003, dated 2014)
